This note sets out measurements from US10752588B2 (The Broad Institute, Inc., priority 2014, dated 2020).

Assay [1] has as its target T1, human D2R/β-arrestin (Homo sapiens (Human), UniProt P14416). Description: β-Arrestin agonist assay (PathHunter). Conditions: CHO-K1 cell line expressing human D2R/β-arrestin. In kind it is cell-based. An outline of the steps: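 After compound incubation, detection reagent (Buffer:Emerald II:Galactor-Star, 19:5:1) added and luminescence or fluorescence read.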
Assay [2] deals with T1, human D2R/β-arrestin. Description: Gi/cAMP agonist assay (Lance Ultra cAMP, Forskolin). In kind it is cell-based. To be noted: CHO-K1 cell line expressing human D2R/β-arrestin. An outline of the steps:
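Cells were plated and incubated before compounds were pin-transferred and incubated for 10 min at 37 °C. Forskolin was then added to stimulate cAMP. cAMP was detected by Lance Ultra TR-FRET using Eu-cAMP tracer and ULight-anti-cAMP antibody.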

Assay [3] deals with T1, human D2R/β-arrestin. Description: cell-based. Conditions: β-arrestin Antagonist, CHO-K1 cell line expressing human D2R/β-arrestin; quinpirole used as agonist.
Protocol: The detection reagents are then added, and the read-out is detected.
Cells were prepared for assays by growing cultures for up to 2 weeks (from about 6-20 passages). A vial of frozen cells was thawed in a water bath held at 37° C. The cells were then transferred into a 50 ml tube with 10 ml growth media. The vial was rinsed with growth media and the contents transferred to the 50 ml tube. The 50 ml tube was centrifuged at 1200 rpm for 5 minutes at room temperature. […] When the cells reached about 90% confluence (approximately 3 days between passages), the cells were passaged and used for either the agonist or antagonist assays as described below.
The cells were prepared for β-arrestin assays as described above. The assays were performed using a PathHunter® β-Arrestin Detecting Kit (DiscoveRX). The cells were grown on 225 mm dishes, then washed once with 1×PBS (Cellgro), followed by digestion with 2.5 ml 1× Detachment reagent (DRX 92-0009) for approximately 2 minutes.
Assay [4] concerns the target T1, human D2R/β-arrestin. Description: cell-based. To be noted: cAMP Antagonist, CHO-K1 cell line expressing human D2R/β-arrestin; quinpirole used as agonist.

T1 sequence (P14416 whole entry): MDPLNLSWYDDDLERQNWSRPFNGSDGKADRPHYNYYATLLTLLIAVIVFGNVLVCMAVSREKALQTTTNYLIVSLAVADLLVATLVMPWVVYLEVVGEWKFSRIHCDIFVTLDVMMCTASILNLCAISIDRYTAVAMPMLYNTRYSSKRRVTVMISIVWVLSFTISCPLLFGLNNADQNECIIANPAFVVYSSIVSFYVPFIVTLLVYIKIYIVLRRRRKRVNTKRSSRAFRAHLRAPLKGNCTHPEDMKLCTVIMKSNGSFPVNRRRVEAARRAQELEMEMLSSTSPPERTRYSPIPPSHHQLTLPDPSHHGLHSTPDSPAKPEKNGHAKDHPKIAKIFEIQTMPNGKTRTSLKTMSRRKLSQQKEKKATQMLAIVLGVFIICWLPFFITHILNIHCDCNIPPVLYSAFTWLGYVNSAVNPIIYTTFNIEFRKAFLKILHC

As a reminder, the EC50 is the concentration that produces a half-maximal response. In general, IC50 refers to the concentration needed to halve the response being measured. The low end stands for higher potency, the high end for lower potency. For `COc1cccc(C(NC(=O)C2CCN(CCOc3ccc4ncsc4c3)CC2)c2ccccn2)c1` (stereo not drawn) [Compound 82, 1-(2-(benzo[d]thiazol-6-yloxy)ethyl)-N-((3-methoxyphenyl)(pyridin-2-yl)methyl)piperidine-4-carboxamide], the EC50 at human D2R/β-arrestin [1] and on human D2R/β-arrestin [2] was greater than 30 µM each time. Moreover, the IC50 at human D2R/β-arrestin [3] was 10 to 30 µM; at human D2R/β-arrestin [4] it was 1 to 10 µM.

In the case of `O=C(NC(c1ccc(F)cc1)c1ccc(F)cc1)C1CCN(CCOc2ccccc2Cl)CC1` [Compound 83, N-(bis(4-fluorophenyl)methyl)-1-(2-(2-chlorophenoxy)ethyl)piperidine-4-carboxamide], the EC50 at human D2R/β-arrestin [1] and on human D2R/β-arrestin [2] was greater than 30 µM in each case. Also, the half-maximal inhibitory concentration (IC50) at human D2R/β-arrestin [3] and at human D2R/β-arrestin [4] was less than 0.1 µM each time.

For `O=C(NC(c1ccccc1F)c1ccccc1F)C1CCN(CCOc2ccccc2Cl)CC1` [Compound 84, N-(bis(2-fluorophenyl)methyl)-1-(2-(2-chlorophenoxy)ethyl)piperidine-4-carboxamide], the EC50 on human D2R/β-arrestin [1] and on human D2R/β-arrestin [2] was greater than 30 µM throughout. In addition, the IC50 at human D2R/β-arrestin [3] and on human D2R/β-arrestin [4] was 0.1 to 1 µM throughout.

On to `O=C(NC(c1ccc(F)cc1)c1ccccc1F)C1CCN(CCOc2ccccc2Cl)CC1` (stereo not drawn) [Compound 85, 1-(2-(2-chlorophenoxy)ethyl)-N-((2-fluorophenyl)(4-fluorophenyl)methyl)piperidine-4-carboxamide], for which the EC50 at human D2R/β-arrestin [1] and on human D2R/β-arrestin [2] was greater than 30 µM in each case. The IC50 on human D2R/β-arrestin [3] and on human D2R/β-arrestin [4] was less than 0.1 µM throughout.

Turning to `COc1cccc(C(NC(=O)C2CCN(CCOc3ccccc3Cl)CC2)c2ccccc2F)c1` (stereo not drawn) [Compound 86, 1-(2-(2-chlorophenoxy)ethyl)-N-((2-fluorophenyl)(3-methoxyphenyl)methyl)piperidine-4-carboxamide], the half-maximal effective concentration (EC50) on human D2R/β-arrestin [1] and on human D2R/β-arrestin [2] was greater than 30 µM in each case. In addition, the IC50 at human D2R/β-arrestin [3] and at human D2R/β-arrestin [4] was less than 0.1 µM each time.

As for `Fc1ccccc1OCCN1CCC(CNC(c2ccc(Cl)cc2)c2ccccc2F)CC1` (stereo not drawn) [Compound 87, 1-(4-chlorophenyl)-N-((1-(2-(2-fluorophenoxy)ethyl)piperidin-4-yl)methyl)-1-(2-fluorophenyl)methanamine], the EC50 at human D2R/β-arrestin [1] and on human D2R/β-arrestin [2] was greater than 30 µM throughout. The IC50 on human D2R/β-arrestin [3] and at human D2R/β-arrestin [4] was 0.1 to 1 µM throughout.

With `Fc1ccc(F)c(OCCN2CCC(CNC(c3ccc(Cl)cc3)c3ccccn3)CC2)c1` (stereo not drawn) [Compound 89, 1-(4-chlorophenyl)-N-((1-(2-(2,5-difluorophenoxy)ethyl)piperidin-4-yl)methyl)-1-(pyridin-2-yl)methanamine], the EC50 on human D2R/β-arrestin [1] and at human D2R/β-arrestin [2] was greater than 30 µM each time. Besides, the IC50 at human D2R/β-arrestin [3] and on human D2R/β-arrestin [4] was 0.1 to 1 µM each time.

Turning to `COc1cccc(C(NC(=O)C2CCN(CCOc3cc(F)ccc3F)CC2)c2ccccn2)c1` (stereo not drawn) [Compound 90, 1-(2-(2,5-difluorophenoxy)ethyl)-N-((3-methoxyphenyl)(pyridin-2-yl)methyl) piperidine-4-carboxamide], the EC50 on human D2R/β-arrestin [1] is greater than 30 µM; on human D2R/β-arrestin [2] it was 1 to 10 µM. Moreover, the IC50 at human D2R/β-arrestin [3] and at human D2R/β-arrestin [4] was 1 to 10 µM throughout.

For the compound `O=C(NC(c1ccc(Cl)cc1)c1ccncc1F)C1CCN(CCOc2ccccc2F)CC1` (stereo not drawn) [Compound 91, N-((4-chlorophenyl)(3-fluoropyridin-4-yl)methyl)-1-(2-(2-fluorophenoxy)ethyl)piperidine-4-carboxamide], the figures for the EC50 on human D2R/β-arrestin [1] and at human D2R/β-arrestin [2] were greater than 30 µM and 0.1 to 1 µM, respectively. The IC50 on human D2R/β-arrestin [3] and on human D2R/β-arrestin [4] was 0.1 to 1 µM in each case.

On to `O=C(NC(c1ccc2c(c1)OC(F)(F)O2)c1ccccn1)C1CCN(CCOc2ccccc2F)CC1` (stereo not drawn) [Compound 94, N-((2,2-difluorobenzo[d][1,3]dioxol-5-yl)(pyridin-2-yl)methyl)-1-(2-(2-fluorophenoxy)ethyl)piperidine-4-carboxamide], for which the EC50 was 0.1 to 1 µM at human D2R/β-arrestin [1] and less than 0.1 µM at human D2R/β-arrestin [2]. Also, the results for the IC50 on human D2R/β-arrestin [3] and at human D2R/β-arrestin [4] were 0.1 to 1 µM and greater than 30 µM, respectively.

On to `CC(C1CCN(CCOc2ccccc2)CC1)N(C)C(c1ccc(Cl)cc1)c1ccccn1` (stereo not drawn) [Compound 97, N-((4-chlorophenyl)(pyridin-2-yl)methyl)-N-methyl-1-(1-(2-phenoxyethyl)piperidin-4-yl)ethan-1-amine], for which the EC50 at human D2R/β-arrestin [1] and on human D2R/β-arrestin [2] was greater than 30 µM each time. The IC50 at human D2R/β-arrestin [3] and on human D2R/β-arrestin [4] was less than 0.1 µM throughout.

On to `Clc1ccc(C(c2ccccn2)N2CC3CCN(CCOc4ccccc4)CC3C2)cc1` (stereo not drawn) [Compound 98, 2-((4-chlorophenyl)(pyridin-2-yl)methyl)-5-(2-phenoxyethyl)octahydro-1H-pyrrolo[3,4-c]pyridine], for which the concentration giving a half-maximal response (EC50) is 0.1 to 1 µM on human D2R/β-arrestin [1] and less than 0.1 µM at human D2R/β-arrestin [2]. Moreover, the IC50 at human D2R/β-arrestin [3] and at human D2R/β-arrestin [4] was greater than 30 µM throughout.

With `CC1(CNC(c2ccc(F)cc2)c2ccccn2)CCN(CCOc2ccccc2C(F)(F)F)CC1` (stereo not drawn) [Compound 101, 1-(4-fluorophenyl)-N-((4-methyl-1-(2-(2-(trifluoromethyl)phenoxy)ethyl)piperidin-4-yl)methyl)-1-(pyridin-2-yl)methanamine], the EC50 on human D2R/β-arrestin [1] and at human D2R/β-arrestin [2] was greater than 30 µM each time. In addition, the IC50 was 0.1 to 1 µM on human D2R/β-arrestin [3] and less than 0.1 µM on human D2R/β-arrestin [4].

Consider `c1ccc(OCCN2CCC(CNC(c3ccc4c(c3)OCO4)c3ccccn3)CC2)cc1` (stereo not drawn) [Compound 102, 1-(benzo[d][1,3]dioxol-5-yl)-N-((1-(2-phenoxyethyl)piperidin-4-yl)methyl)-1-(pyridin-2-yl)methanamine], for which the concentration for a half-maximal effect (EC50) on human D2R/β-arrestin [1] was greater than 30 µM; at human D2R/β-arrestin [2], 0.1 to 1 µM. In addition, the IC50 on human D2R/β-arrestin [3] and on human D2R/β-arrestin [4] was 0.1 to 1 µM throughout.

Take `FC(F)(F)c1ccccc1OCCN1CCC2(CC1)CCN(C(c1ccc(Cl)cc1)c1ccccn1)C2` (stereo not drawn) [Compound 106, 2-((4-chlorophenyl)(pyridin-2-yl)methyl)-8-(2-(2-(trifluoromethyl)phenoxy)ethyl)-2,8-diazaspiro[4.5]decane]: the 50% effective concentration (EC50) is greater than 30 µM on human D2R/β-arrestin [1] and 1 to 10 µM at human D2R/β-arrestin [2]. The IC50 on human D2R/β-arrestin [3] fell in the range of 0.1 to 1 µM; at human D2R/β-arrestin [4], 1 to 10 µM.

Turning to `CC(=O)N(CC1CCN(CCOc2ccccc2)CC1)C(c1ccc(Cl)cc1)c1ccccn1` (stereo not drawn) [Compound 107, N-((4-chlorophenyl)(pyridin-2-yl)methyl)-N-((1-(2-phenoxyethyl)piperidin-4-yl)methyl) acetamide], the EC50 was greater than 30 µM at human D2R/β-arrestin [1] and 0.1 to 1 µM on human D2R/β-arrestin [2]. Also, the values for the half-maximal inhibitory concentration (IC50) at human D2R/β-arrestin [3] and on human D2R/β-arrestin [4] were 0.1 to 1 µM and greater than 30 µM, respectively.

For `COc1ccccc1OCCN1CCC(C(=O)NCc2nccc3ccccc23)CC1` [Compound 108, N-(isoquinolin-1-ylmethyl)-1-(2-(2-methoxyphenoxy)ethyl)piperidine-4-carboxamide], the EC50 at human D2R/β-arrestin [1] was greater than 30 µM; at human D2R/β-arrestin [2] it was less than 0.1 µM. Further, the half-inhibitory concentration (IC50) is 1 to 10 µM on human D2R/β-arrestin [3] and greater than 30 µM at human D2R/β-arrestin [4].

Consider `O=C(NC(c1ccc(Cl)cc1)c1ccccn1)C1CCN(CCCCOc2ccccc2)CC1` (stereo not drawn) [Compound 110], for which the EC50 on human D2R/β-arrestin [1] and at human D2R/β-arrestin [2] was greater than 30 µM in each case. The results for the IC50 at human D2R/β-arrestin [3] and at human D2R/β-arrestin [4] were 1 to 10 µM and 0.1 to 1 µM, respectively.

On to `O=C(NC(c1ccccc1)c1ccccn1)C1CCN(CCOc2ccccc2)CC1` (stereo not drawn) [Compound 113, 1-(2-phenoxyethyl)-N-(phenyl(pyridin-2-yl)methyl)piperidine-4-carboxamide], for which the EC50 on human D2R/β-arrestin [1] is greater than 30 µM; on human D2R/β-arrestin [2] it was less than 0.1 µM. Further, the IC50 at human D2R/β-arrestin [3] is 1 to 10 µM; on human D2R/β-arrestin [4], greater than 30 µM.

Turning to `O=C(NC(c1ccc(Cl)cc1)c1ccc(F)cn1)C1CCN(CCOc2ccccc2)CC1` (stereo not drawn) [Compound 116, N-((4-chlorophenyl)(5-fluoropyridin-2-yl)methyl)-1-(2-phenoxyethyl)piperidine-4-carboxamide], the half-maximal effective concentration (EC50) is greater than 30 µM at human D2R/β-arrestin [1] and 0.1 to 1 µM on human D2R/β-arrestin [2]. The IC50 at human D2R/β-arrestin [3] is 1 to 10 µM; on human D2R/β-arrestin [4] it was greater than 30 µM.

Consider `O=C(NC(c1ccc(Cl)cc1)c1ccncc1F)C1CCN(CCOc2ccccc2)CC1` (stereo not drawn) [Compound 117, N-((4-chlorophenyl)(3-fluoropyridin-4-yl)methyl)-1-(2-phenoxyethyl) piperidine-4-carboxamide], for which the figures for the EC50 on human D2R/β-arrestin [1] and on human D2R/β-arrestin [2] were greater than 30 µM and 0.1 to 1 µM, respectively. Moreover, the IC50 is 1 to 10 µM on human D2R/β-arrestin [3] and greater than 30 µM at human D2R/β-arrestin [4].

In the case of `O=C(NC(c1cccc(OC(F)(F)F)c1)c1ccccn1)C1CCN(CCOc2ccccc2)CC1` (stereo not drawn) [Compound 118, 1-(2-phenoxyethyl)-N-(pyridin-2-yl(3-(trifluoromethoxy)phenyl)methyl) piperidine-4-carboxamide], the EC50 on human D2R/β-arrestin [1] was greater than 30 µM; on human D2R/β-arrestin [2], less than 0.1 µM. Further, the IC50 is 1 to 10 µM at human D2R/β-arrestin [3] and greater than 30 µM at human D2R/β-arrestin [4].

Take `O=C(NC(c1ccc2c(c1)OC(F)(F)O2)c1ccccn1)C1CCN(CCOc2ccccc2)CC1` (stereo not drawn) [Compound 119]: the figures for the EC50 at human D2R/β-arrestin [1] and on human D2R/β-arrestin [2] were greater than 30 µM and less than 0.1 µM, respectively. For the same compound, the results for the IC50 at human D2R/β-arrestin [3] and on human D2R/β-arrestin [4] were 0.1 to 1 µM and greater than 30 µM, respectively.

As for `FC(F)(F)c1ccccc1OCCN1CCC(CNC(c2ccc(Cl)cc2)c2ccccn2)CC1` (stereo not drawn) [Compound 120, 1-(4-chlorophenyl)-1-(pyridin-2-yl)-N-((1-(2-(2-(trifluoromethyl)phenoxy)ethyl)piperidin-4-yl)methyl)methanamine], the EC50 at human D2R/β-arrestin [1] and on human D2R/β-arrestin [2] was greater than 30 µM throughout. In addition, the IC50 on human D2R/β-arrestin [3] and on human D2R/β-arrestin [4] was less than 0.1 µM in each case.
